Measurements reported in US20210171948A1, “COMPOSITIONS AND METHODS FOR TARGETING GLYPICAN-2 IN THE TREATMENT OF CANCER” (Shepherd Therapeutics, Inc., priority 2019, published 2021).
d = 2'-deoxy (DNA); r = 2'-OH (RNA)

Assays:
[1] = tested on: CHP212, SKNAS and SHSY5Y neuroblastoma cell lines; assay: Cell viability after siRNA transfection, 96 hour (Example 4, FIG. 3B); type: cell-based; details: 96 hour incubation (FIG. 3B)
Procedure: GPC2 mRNA knockdown was assessed in multiple neuroblastoma cell lines. Cells were transfected with either a scrambled control siRNA, with GPC2 siRNA sequences 3 or 5 from Table 7, or with siRNA sequences generated by Dharmacon (sequences 12-15 from Table 7) using the RNAiMAX Lipofectamine kit (Invitrogen, Carlsbad, Calif.) as previously described. Following a 96 hour incubation period, total RNA samples were collected to compare knockdown efficiency and viability was measured in parallel plated cells.

[2] = tested on: CHP212, SKNAS, SKNBE2 or CHLA90 neuroblastoma cells; assay: Tumor spheroid formation after siRNA transfection, low attachment plate (Example 11); type: cell-based; details: 96 hours following transfection, in cells with the highest degree of GPC2 mRNA knockdown (FIG. 6)
Procedure: The effect of GPC2 knockdown on tumor spheroid formation was assessed. CHP212, SKNAS, SKNBE2 or CHLA90 neuroblastoma cells were transfected with either a scrambled control siRNA or with a GPC2 siRNA of sequence 5 from Table 7 using the RNAiMAX Lipofectamine kit (Invitrogen, Carlsbad, Calif.), as previously described. Following transfection, cells were plated in a low attachment 96 well plate for spheroid formation while under siRNA treatment.

Substance: GPC2 siRNA 3: siRNA duplex: sense CCUGCUUGGACCUCGAUAA[dT][dT] (SEQ ID NO: 207), anti-sense UUAUCGAGGUCCAAGCAGG[dT][dT] (SEQ ID NO: 208) (sense CCUGCUUGGACCUCGAUAANN; antisense UUAUCGAGGUCCAAGCAGGNN; 3' dTdT overhangs, chemistry not fully specified; listed as Homo sapiens)
- Viability decrease among sequences 3, 5, 12-15 [1]: greater viability decrease

Substance: GPC2 siRNA 5: siRNA duplex: sense CUCAGUAGCCCAGCACUCU[dT][dT] (SEQ ID NO: 211), anti-sense AGAGUGCUGGGCUACUGAG[dT][dT] (SEQ ID NO: 212) (sense CUCAGUAGCCCAGCACUCUTT; antisense AGAGUGCUGGGCUACUGAGTT; sugars from the 5' end r19 d2, backbone not given here; listed as Homo sapiens)
- Viability decrease among sequences 3, 5, 12-15 [1]: greater viability decrease
- Tumor spheroid formation [2]: greatest inhibition in their ability to form spheroids
